Data from the NIST ThermoML archive (doi:10.1016/j.jct.2018.01.015).

Test: xn = mol fraction of the nth substance listed
Conditions: Gas, rotating-body viscometer for gases

N#N [nitrogen] + O=C=O
Conditions	viscosity [mPa·s]
253.16 K, 203.1 kPa, x1 = 0.7498	0.01498
253.16 K, 399 kPa, x1 = 0.7498	0.01501
253.16 K, 601.1 kPa, x1 = 0.7498	0.01505
253.16 K, 797.1 kPa, x1 = 0.7498	0.01509
253.16 K, 998.4 kPa, x1 = 0.7498	0.01514
253.17 K, 100.3 kPa, x1 = 0.7498	0.01495
253.17 K, 108.1 kPa, x1 = 0.4996	0.01423
253.17 K, 200.4 kPa, x1 = 0.4996	0.01425
253.17 K, 398.3 kPa, x1 = 0.4996	0.01427
253.17 K, 596.2 kPa, x1 = 0.4996	0.01431
253.17 K, 798.8 kPa, x1 = 0.4996	0.01435
253.18 K, 110.4 kPa, x1 = 0.2479	0.01347
253.18 K, 203.7 kPa, x1 = 0.2479	0.01348
253.18 K, 396.3 kPa, x1 = 0.2479	0.01348
253.18 K, 605.2 kPa, x1 = 0.2479	0.01352
253.21 K, 100.8 kPa, x1 = 1	0.01561
253.21 K, 200.9 kPa, x1 = 1	0.01564
253.21 K, 400.7 kPa, x1 = 1	0.01566
253.21 K, 600.8 kPa, x1 = 1	0.01571
253.21 K, 800.8 kPa, x1 = 1	0.01574
253.21 K, 1000.9 kPa, x1 = 1	0.01579
253.21 K, 1200.9 kPa, x1 = 1	0.01584
273.19 K, 108.8 kPa, x1 = 0.7498	0.01597
273.19 K, 109.2 kPa, x1 = 0.4996	0.01525
273.19 K, 201 kPa, x1 = 0.7498	0.01599
273.19 K, 400.9 kPa, x1 = 0.4996	0.0153
273.19 K, 401.7 kPa, x1 = 0.7498	0.01602
273.19 K, 600.3 kPa, x1 = 0.7498	0.01605
273.19 K, 603.1 kPa, x1 = 0.4996	0.01533
273.19 K, 800.1 kPa, x1 = 0.4996	0.01537
273.19 K, 800.2 kPa, x1 = 0.7498	0.0161
273.19 K, 1000.1 kPa, x1 = 0.7498	0.01613
273.19 K, 1200.6 kPa, x1 = 0.7498	0.01619
273.2 K, 201.1 kPa, x1 = 0.2479	0.01448
273.2 K, 205.6 kPa, x1 = 0.4996	0.01527
273.2 K, 397.9 kPa, x1 = 0.2479	0.0145
273.2 K, 601.6 kPa, x1 = 0.2479	0.01453
273.2 K, 1004.5 kPa, x1 = 0.4996	0.01541
273.21 K, 108.1 kPa, x1 = 0.2479	0.01448
273.21 K, 793.9 kPa, x1 = 0.2479	0.01457
273.24 K, 100.7 kPa, x1 = 1	0.01659
273.24 K, 200.8 kPa, x1 = 1	0.01661
273.24 K, 400.5 kPa, x1 = 1	0.01664
273.24 K, 600.4 kPa, x1 = 1	0.01667
273.24 K, 800.6 kPa, x1 = 1	0.01671
273.24 K, 1000.6 kPa, x1 = 1	0.01674
273.24 K, 1499.8 kPa, x1 = 1	0.01685
298.19 K, 108.9 kPa, x1 = 0.7498	0.01719
298.19 K, 196.7 kPa, x1 = 0.7498	0.01721
298.19 K, 402.3 kPa, x1 = 0.7498	0.01724
298.19 K, 604.2 kPa, x1 = 0.7498	0.01727
298.19 K, 801 kPa, x1 = 0.7498	0.0173
298.19 K, 999.3 kPa, x1 = 0.7498	0.01734
298.19 K, 1498.4 kPa, x1 = 0.7498	0.01744
298.2 K, 202.6 kPa, x1 = 0.7498	0.0172
298.2 K, 390.5 kPa, x1 = 0.7498	0.01724
298.2 K, 599.6 kPa, x1 = 0.7498	0.01727
298.2 K, 807 kPa, x1 = 0.7498	0.0173
298.2 K, 1008.5 kPa, x1 = 0.7498	0.01734
298.2 K, 1501.4 kPa, x1 = 0.7498	0.01744
298.21 K, 108 kPa, x1 = 0.4996	0.0165
298.21 K, 108.7 kPa, x1 = 0.2479	0.01571
298.21 K, 109 kPa, x1 = 0.4996	0.01649
298.21 K, 109 kPa, x1 = 0.7498	0.01719
298.21 K, 201.9 kPa, x1 = 0.4996	0.01651
298.21 K, 204.7 kPa, x1 = 0.4996	0.0165
298.21 K, 205.2 kPa, x1 = 0.2479	0.01572
298.21 K, 395.1 kPa, x1 = 0.2479	0.01574
298.21 K, 399.1 kPa, x1 = 0.4996	0.01654
298.21 K, 402.3 kPa, x1 = 0.4996	0.01654
298.21 K, 593.4 kPa, x1 = 0.4996	0.01656
298.21 K, 602.9 kPa, x1 = 0.2479	0.01577
298.21 K, 603.8 kPa, x1 = 0.4996	0.01657
298.21 K, 800.9 kPa, x1 = 0.4996	0.0166
298.21 K, 803.6 kPa, x1 = 0.4996	0.01661
298.21 K, 807.6 kPa, x1 = 0.2479	0.01581
298.21 K, 1000 kPa, x1 = 0.4996	0.01664
298.21 K, 1002.4 kPa, x1 = 0.2479	0.01585
298.21 K, 1003.3 kPa, x1 = 0.4996	0.01664
298.21 K, 1202 kPa, x1 = 0.4996	0.0167
298.21 K, 1204.4 kPa, x1 = 0.4996	0.01669
298.22 K, 107.9 kPa, x1 = 0.2479	0.01571
298.22 K, 204.8 kPa, x1 = 0.2479	0.01572
298.22 K, 401.2 kPa, x1 = 0.2479	0.01575
298.22 K, 602.1 kPa, x1 = 0.2479	0.01578
298.22 K, 794.6 kPa, x1 = 0.2479	0.01581
298.22 K, 1003 kPa, x1 = 0.2479	0.01585
298.24 K, 800.5 kPa, x1 = 1	0.01785
298.25 K, 99.6 kPa, x1 = 1	0.01776
298.25 K, 100.7 kPa, x1 = 1	0.01777
298.25 K, 200.5 kPa, x1 = 1	0.01778
298.25 K, 400.7 kPa, x1 = 1	0.0178
298.25 K, 400.8 kPa, x1 = 1	0.0178
298.25 K, 600.2 kPa, x1 = 1	0.01783
298.25 K, 1000.1 kPa, x1 = 1	0.01789
298.25 K, 1500.2 kPa, x1 = 1	0.01799
323.2 K, 109.1 kPa, x1 = 0.7498	0.01837
323.2 K, 198.2 kPa, x1 = 0.7498	0.01838
323.2 K, 393.8 kPa, x1 = 0.7498	0.01841
323.2 K, 600.2 kPa, x1 = 0.7498	0.01844
323.2 K, 800.3 kPa, x1 = 0.7498	0.01847
323.2 K, 1000.9 kPa, x1 = 0.7498	0.0185
323.2 K, 1500.1 kPa, x1 = 0.7498	0.0186
323.22 K, 108.4 kPa, x1 = 0.2479	0.01691
323.22 K, 109.2 kPa, x1 = 0.4996	0.01769
323.22 K, 196.1 kPa, x1 = 0.2479	0.01693
